The compounds below were run against T1, human P2X7 receptor (Homo sapiens, UniProt Q99572, R270H) (assay: Evaluation of a human P2X7 receptor inhibitory activity (Yo-Pro uptake, BzATP stimulation, FLIPR TETRA)). Settings: antagonistic activity for the human P2X7 receptor, 1321N1 cell transfected with the human P2X7 receptor gene, Yo-Pro fluorescence.
T1 construct: expressed in transfected cells
T1 sequence (Q99572 1-595 R270H): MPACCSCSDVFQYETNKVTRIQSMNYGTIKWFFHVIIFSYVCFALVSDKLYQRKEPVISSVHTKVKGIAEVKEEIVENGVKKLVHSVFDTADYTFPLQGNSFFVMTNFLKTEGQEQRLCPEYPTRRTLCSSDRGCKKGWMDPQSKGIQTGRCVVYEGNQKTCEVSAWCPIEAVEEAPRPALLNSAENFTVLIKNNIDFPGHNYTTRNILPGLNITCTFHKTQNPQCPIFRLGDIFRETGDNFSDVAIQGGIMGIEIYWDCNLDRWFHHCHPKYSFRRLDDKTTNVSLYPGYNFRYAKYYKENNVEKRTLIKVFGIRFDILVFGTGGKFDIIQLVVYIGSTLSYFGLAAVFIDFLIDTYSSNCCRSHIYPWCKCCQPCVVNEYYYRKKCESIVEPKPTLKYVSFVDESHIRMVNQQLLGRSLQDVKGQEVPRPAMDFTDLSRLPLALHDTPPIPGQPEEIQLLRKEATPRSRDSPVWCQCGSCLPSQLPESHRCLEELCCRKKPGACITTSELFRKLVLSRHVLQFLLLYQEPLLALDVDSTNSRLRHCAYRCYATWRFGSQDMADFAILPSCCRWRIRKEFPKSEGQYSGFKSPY
Assay type: cell-based
Experimental: Test Example 1 Evaluation of a Human P2X7 Receptor Inhibitory Activity
Stably expressing cell line (1321N1 cell transfected with the human P2X7 receptor gene (GenBank accession number NM_002562.5 including T606C and G952A SNP)) was used. The cells were seeded in a 384-well microtiter plate at a concentration of 8000 cells/well and cultured in the medium (10% fetal bovine serum, 25 mM HEPES, 1% penicillin and streptomycin in DMEM) for one day at 37° C. under 5% carbon dioxide atmosphere. After replacing with 20 μL of the HBSS buffer (20 mM HEPES. 55.6 mM D-glucose, 1×HBSS(−), pH 7.4-7.5), 15 μL of 17.3 μM Yo-Pro solution in the HBSS buffer was added. The plate was placed in high-throughput cellular screening system FLIPR TETRA (Molecullar Devices, LLC.) and 15 μL of 130 μM BzATP solution in the HBSS buffer was added. Measurement of fluorescence intensity by FLIPR TETRA was started. After eight minutes, 15 μL of DMSO solutions containing different concentrations of the compound of the present invention as prepared by dilution with the HBSS buffer were dispensed to each well through the built-in automatic dispenser, and the measurement of fluorescence intensity was continued for 20 minutes. The maximum fluorescence intensity without the compound of the present invention is calculated as 0% inhibition and the maximum fluorescence intensity when the reference compound was added is calculated as 100% inhibition. Changing values of fluorescence intensity by the compound of the present invention were calculated by difference between maximum and minimum fluorescence intensity for 20 minutes. Inhibition ratios (%) were calculated from the following equation:
[formula] IC50 was calculated using logistic approximation.

IC50	Compound
180 nM	CC(=O)Nc1cn(Cc2ccccc2)c(-c2cccc(C(F)(F)F)c2Cl)nc1=O [II-046]
630 nM	COc1cn(Cc2ccccc2)c(C2=CCC3(CC2)CC3)nc1=O [II-073]
110 nM	O=c1ccn(Cc2cccc3ccsc23)c(-c2cccc(C(F)(F)F)c2Cl)c1 [Compound I-048]
41 nM	COc1cn(Cc2ccccc2)c(-c2cccc(C(F)(F)F)c2Cl)nc1=O [II-008]
58 nM	O=c1nc(-c2cccc(C(F)(F)F)c2Cl)n(Cc2ccccc2)cc1F [II-031]
130 nM	COc1cn(Cc2ccccc2)c(-c2cccc(Cl)c2Cl)nc1=O [II-056]
20 nM	COc1cn(Cc2cccc3ccccc23)c(-c2cccc(C(F)(F)F)c2Cl)nc1=O [II-055]
71 nM	COC(=O)Nc1cn(Cc2ccccc2)c(-c2cccc(C(F)(F)F)c2Cl)nc1=O [II-053]
190 nM	COc1cn(Cc2ccccc2)c(-c2ccc(Cl)cc2Cl)nc1=O [II-082]

Same assay, conditions: antagonistic activity for the human P2X7 receptor, 1321N1 cell transfected with the human P2X7 receptor gene, Yo-Pro fluorescence, class symbols

IC50	Compound
1000 to 10000 nM	O=c1ccn(Cc2ccc(C(F)(F)F)cc2)c(-c2cccc(C(F)(F)F)c2Cl)c1 [Compound I-052]
500 to 1000 nM	COc1cn(Cc2ccccc2)c(-c2ccc(C(F)(F)F)cc2Cl)nc1=O [II-088]
1000 to 10000 nM	O=c1ccn(Cc2ccc(Oc3ccccc3)cc2)c(-c2cccc(C(F)(F)F)c2Cl)c1 [Compound I-070]
100 to 500 nM	COc1cccc(Cn2ccc(=O)cc2-c2cccc(C(F)(F)F)c2Cl)c1 [Compound I-057]
500 to 1000 nM	NC(=O)c1cn(Cc2ccccc2)c(-c2cccc(C(F)(F)F)c2Cl)nc1=O [II-038]
< 50 nM	COc1cn(Cc2ccccc2CO)c(-c2cccc(C(F)(F)F)c2Cl)nc1=O [II-015]
1000 to 10000 nM	COc1cn(Cc2ccccc2)c(-c2cnn(Cc3ccccc3)c2)nc1=O [II-070]
50 to 100 nM	N#Cc1cn(Cc2ccc(F)cc2)c(-c2cccc(C(F)(F)F)c2Cl)nc1=O [II-049]
100 to 500 nM	COc1cn(Cc2ccc(F)cc2)c(-c2cccc(C(F)(F)F)c2Cl)nc1=O [II-004]
100 to 500 nM	O=c1ccn(Cc2ccccc2C(F)(F)F)c(-c2cccc(C(F)(F)F)c2Cl)c1 [Compound I-033]
100 to 500 nM	O=c1ccn(Cc2cccc3c2OCCCO3)c(-c2cccc(C(F)(F)F)c2Cl)c1 [Compound I-046]
1000 to 10000 nM	O=c1ccn(Cc2nc3ccccc3s2)c(-c2cccc(C(F)(F)F)c2Cl)c1 [Compound I-042]
100 to 500 nM	O=c1ccn(Cc2cccc(CO)c2)c(-c2cccc(C(F)(F)F)c2Cl)c1 [Compound I-035]
< 50 nM	COc1cn(Cc2ccccc2C)c(-c2cccc(C(F)(F)F)c2Cl)nc1=O [II-001]
1000 to 10000 nM	COc1cn(Cc2ccccc2C)c(-c2cccc3ncccc23)nc1=O [II-002]
1000 to 10000 nM	COc1cn(Cc2ccccc2C)c(-c2ccc(Cl)cc2)nc1=O [II-060]
1000 to 10000 nM	O=c1ccn(Cc2ccon2)c(-c2cccc(C(F)(F)F)c2Cl)c1 [Compound I-065]
500 to 1000 nM	O=c1ccn(Cc2cccnc2)c(-c2cccc(C(F)(F)F)c2Cl)c1 [Compound I-053]
100 to 500 nM	CS(=O)(=O)Nc1cn(Cc2ccccc2)c(-c2cccc(C(F)(F)F)c2Cl)nc1=O [II-047]
1000 to 10000 nM	COc1cn(Cc2ccccc2C)c(-c2ccccc2)nc1=O [II-058]
500 to 1000 nM	CC(C)NC(=O)Nc1cccc(Cn2cc(Br)c(=O)cc2-c2cccc(C(F)(F)F)c2Cl)c1 [Compound I-012]
500 to 1000 nM	O=c1ccn(Cc2ccccc2OC(F)(F)F)c(-c2cccc(C(F)(F)F)c2Cl)c1 [Compound I-030]
100 to 500 nM	O=c1cc(-c2cccc(C(F)(F)F)c2Cl)n(Cc2cccc(F)c2)cc1Br [Compound I-010]
1000 to 10000 nM	O=c1ccn(Cc2cccc(-c3cccs3)c2)c(-c2cccc(C(F)(F)F)c2Cl)c1 [Compound I-047]
100 to 500 nM	COc1cn(Cc2ccccc2)c(-c2ccc(Cl)c(Cl)c2)nc1=O [II-084]
1000 to 10000 nM	O=c1ccn(Cc2cccc(OC(F)(F)F)c2)c(-c2cccc(C(F)(F)F)c2Cl)c1 [Compound I-031]
1000 to 10000 nM	O=c1ccn(Cc2ccccc2-c2cccs2)c(-c2cccc(C(F)(F)F)c2Cl)c1 [Compound I-045]

IC50	Compound
1000 to 10000 nM	N#Cc1ccc(Cn2ccc(=O)cc2-c2cccc(C(F)(F)F)c2Cl)cc1 [Compound I-025]
< 50 nM	COc1cn(Cc2cccc3ncccc23)c(-c2cccc(C(F)(F)F)c2Cl)nc1=O [II-052]
500 to 1000 nM	COc1cn(Cc2ccccc2)c(-c2cccc(Cl)c2C)nc1=O [II-081]
50 to 100 nM	Cc1ccccc1Cn1ccc(=O)cc1-c1cccc(C(F)(F)F)c1Cl [Compound I-018]
< 50 nM	COc1cn(Cc2ccccc2C(F)(F)F)c(-c2cccc(C(F)(F)F)c2Cl)nc1=O [II-099]
100 to 500 nM	O=c1nc(-c2cccc(C(F)(F)F)c2Cl)n(Cc2ccccc2)cc1C(F)(F)F [II-036]
50 to 100 nM	CC(C)(C)OC(=O)Nc1cn(Cc2ccccc2)c(-c2cccc(C(F)(F)F)c2Cl)nc1=O [II-042]
< 50 nM	COc1ccccc1Cn1cc(C#N)c(=O)nc1-c1cccc(C(F)(F)F)c1Cl [II-092]
< 50 nM	N#Cc1cn(Cc2ccccc2)c(-c2cccc(C(F)(F)F)c2Cl)nc1=O [II-037]
100 to 500 nM	CC(C)NC(=O)Nc1cccc(Cn2ccc(=O)cc2-c2cccc(C(F)(F)F)c2Cl)c1 [Compound I-037]
1000 to 10000 nM	Cc1cc(Cn2ccc(=O)cc2-c2cccc(C(F)(F)F)c2Cl)on1 [Compound I-068]
50 to 100 nM	CC(C)Oc1cn(Cc2ccccc2)c(-c2cccc(C(F)(F)F)c2Cl)nc1=O [II-021]
100 to 500 nM	N#Cc1cccc(Cn2cc(Cl)c(=O)cc2-c2cccc(C(F)(F)F)c2Cl)c1 [Compound I-013]
100 to 500 nM	CC(=O)c1cn(Cc2ccccc2)c(-c2cccc(C(F)(F)F)c2Cl)cc1=O [Compound I-014]
< 50 nM	Cc1ccccc1Cn1cc(OCC#N)c(=O)nc1-c1cccc(C(F)(F)F)c1Cl [II-090]
500 to 1000 nM	O=c1ccn(Cc2ccc3ccccc3c2)c(-c2cccc(C(F)(F)F)c2Cl)c1 [Compound I-051]
< 50 nM	COc1cn(Cc2ccccc2OC(F)(F)F)c(-c2cccc(C(F)(F)F)c2Cl)nc1=O [II-097]
1000 to 10000 nM	COc1cn(Cc2ccccc2C)c(C2=CCCCC2)nc1=O [II-057]
100 to 500 nM	COc1cn(Cc2cccc(C#N)c2)c(-c2cccc(C(F)(F)F)c2Cl)cc1=O [Compound I-007]
500 to 1000 nM	N#Cc1cccc(Cn2ccc(=O)cc2-c2cccc(C(F)(F)F)c2Cl)c1 [Compound I-024]
100 to 500 nM	O=c1cc(-c2cccc(C(F)(F)F)c2Cl)n(Cc2cccc(Cl)c2)cc1Br [Compound I-011]
100 to 500 nM	COc1cn(Cc2cccnc2)c(-c2cccc(C(F)(F)F)c2Cl)nc1=O [II-009]
500 to 1000 nM	CC(=O)c1cn(Cc2cccc(C#N)c2)c(-c2cccc(C(F)(F)F)c2Cl)cc1=O [Compound I-005]
100 to 500 nM	COc1cn(Cc2ccccn2)c(-c2cccc(C(F)(F)F)c2Cl)nc1=O [II-018]
50 to 100 nM	O=c1nc(-c2cccc(C(F)(F)F)c2Cl)n(Cc2ccccc2)cc1Oc1ccccc1 [II-080]
100 to 500 nM	N#Cc1cccc(Cn2cc(Br)c(=O)cc2-c2cccc(C(F)(F)F)c2Cl)c1 [Compound I-003]
50 to 100 nM	O=c1nc(-c2cccc(C(F)(F)F)c2Cl)n(Cc2ccccc2)cc1OCCO [II-025]
